Test results: paper PMC10136147, “Bacillus subtilis YtpP and Thioredoxin A Are New Players in the Coenzyme-A-Mediated Defense Mechanism against Cellular Stress” (Antioxidants, 2023)

Tests used:
[1] = target: T1, PRDX5 (Homo sapiens, UniProt P30044); test: anti-CoA Western blot after in vitro CoAlation; assay type: binding; conditions: covalent mixed disulfide with cysteine; protein:CoA:H2O2 1:3:10, RT, 30 min; monomer and oligomer bands
T1 sequence (P30044 54-214): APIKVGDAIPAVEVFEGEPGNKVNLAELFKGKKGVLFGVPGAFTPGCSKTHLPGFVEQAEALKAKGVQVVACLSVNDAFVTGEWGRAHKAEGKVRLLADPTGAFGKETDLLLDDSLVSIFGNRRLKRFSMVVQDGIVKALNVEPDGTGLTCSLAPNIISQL

[2] = target: T2, YtpP (Bacillus subtilis, UniProt O34357); test: HPLC ([…] nm) of released CoA; anti-CoA Western blot; assay type: biochemical; conditions: CoA released from 6 uM CoA-MsrA or CoA-PRDX5 by 60 uM enzyme, 1 h, 37 C
T2 sequence (O34357 1-107): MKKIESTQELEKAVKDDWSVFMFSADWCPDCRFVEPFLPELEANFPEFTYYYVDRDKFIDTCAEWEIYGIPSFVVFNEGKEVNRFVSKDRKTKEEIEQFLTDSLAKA

[3] = target: T3, MsrA (Corynebacterium diphtheriae, UniProt Q6NEL2); test: anti-CoA Western blot after in vitro CoAlation; assay type: binding; conditions: covalent mixed disulfide with cysteine; protein:CoA:H2O2 1:3:10, RT, 30 min; monomer and oligomer bands
T3 construct: 26 kDa
T3 sequence (Q6NEL2 1-220): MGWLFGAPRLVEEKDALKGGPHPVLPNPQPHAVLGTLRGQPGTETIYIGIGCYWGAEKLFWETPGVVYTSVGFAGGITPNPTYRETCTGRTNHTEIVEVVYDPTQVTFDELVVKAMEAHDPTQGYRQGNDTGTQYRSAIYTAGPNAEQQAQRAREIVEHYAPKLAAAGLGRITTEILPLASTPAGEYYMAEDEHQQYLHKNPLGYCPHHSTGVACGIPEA

[4] = target: T4, TrxA (Bacillus subtilis, UniProt P14949); test: HPLC ([…] nm) of released CoA; anti-CoA Western blot; assay type: biochemical; conditions: CoA released from 6 uM CoA-MsrA or CoA-PRDX5 by 60 uM enzyme, 1 h, 37 C
T4 construct: about 11 kDa, N-terminal 6xHis tag (pET28a), E. coli BLR(DE3)
T4 sequence (P14949 1-104): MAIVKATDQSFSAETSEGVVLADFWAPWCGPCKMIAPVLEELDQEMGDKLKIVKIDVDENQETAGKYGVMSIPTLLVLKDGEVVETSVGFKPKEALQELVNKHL

[5] = target: YtpP (Bacillus subtilis, UniProt O34357, C28S); test: anti-CoA Western blot after incubation with CoAlated protein; assay type: binding; conditions: covalent; CoA transferred from the CoAlated protein, 30 min, 37 C
[6] = target: T5, GAPDH (Staphylococcus aureus, UniProt Q6GIL8); test: anti-CoA ELISA and Western blot after in vitro CoAlation; assay type: binding; conditions: covalent mixed disulfide with cysteine; protein:CoA:H2O2 1:3:10, RT, 30 min; reversed by 10 mM DTT
T5 construct: gene gapA1
T5 sequence (Q6GIL8 1-336): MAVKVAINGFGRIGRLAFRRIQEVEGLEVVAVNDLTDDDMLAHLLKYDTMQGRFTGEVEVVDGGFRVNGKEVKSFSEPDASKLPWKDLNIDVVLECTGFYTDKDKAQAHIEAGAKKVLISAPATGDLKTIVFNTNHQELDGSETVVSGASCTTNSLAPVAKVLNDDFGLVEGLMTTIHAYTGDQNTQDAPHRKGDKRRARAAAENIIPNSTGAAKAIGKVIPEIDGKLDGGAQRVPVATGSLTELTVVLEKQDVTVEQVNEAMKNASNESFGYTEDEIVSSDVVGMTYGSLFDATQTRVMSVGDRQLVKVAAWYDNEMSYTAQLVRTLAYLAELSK

YtpP (Bacillus subtilis, UniProt O34357, C28S), sequence (O34357 whole entry C28S): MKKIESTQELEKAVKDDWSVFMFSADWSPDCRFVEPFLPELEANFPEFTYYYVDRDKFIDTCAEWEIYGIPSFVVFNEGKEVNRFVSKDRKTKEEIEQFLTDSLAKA

SMILES: CC(C)(COP(=O)(O)OP(=O)(O)OC[C@H]1O[C@@H](n2cnc3c(N)ncnc32)[C@H](O)[C@@H]1OP(=O)(O)O)[C@@H](O)C(=O)NCCC(=O)NCCS [CoA]
- anti-CoA Western blot after in vitro CoAlation [1]: anti-CoA WB was used to confirm the CoAlation of both proteins
- HPLC (254 nm) of released CoA; anti-CoA Western blot [2]: Following deCoAlation of both substrates by YtpP and TrxA, CoA release was monitored.
- anti-CoA Western blot after in vitro CoAlation [3]: anti-CoA WB was used to confirm the CoAlation of both proteins
- HPLC (254 nm) of released CoA; anti-CoA Western blot [4]: Following deCoAlation of both substrates by YtpP and TrxA, CoA release was monitored.
- anti-CoA Western blot after incubation with CoAlated protein [5]: “Δ” represents either CoAlated YtpP C28S or YtpP C31S, or CoAlated TrxA C29S
- anti-CoA ELISA and Western blot after in vitro CoAlation [6]: high signal was recorded due to the detection of CoA on the CoAlated protein
